# Measured values taken from article PMC8427973, “Regulation of the HTRA2 Protease Activity by an Inhibitory Antibody-Derived Peptide Ligand and the Influence on HTRA2-Specific Protein Interaction Networks in Retinal Tissues” (Biomedicines, 2021).
# What was measured:
# [1] = test system: HTRA2-specific interaction partners FNLA, NCKAP1, POTEE, PSMC1, SEC13; experiment: Targeted MS analysis (accurate inclusion mass screening, AIMS) of HTRA2 Co-IP eluates; parameters: species or system house swine (Sus scrofa); conditions: repeated Co-IP, n = 3 biological replicates, Figure S3, CDR p < 0.05, UCF-101 p > 0.05
# Excerpt: Thereby, the peptides of interest were listed in the software inclusion list and the LTQ Orbitrap XL MS system only required MS/MS scans of the parent ions if the listed peptide was detected with an accurate mass and charge state. […] The selected peptides needed to be fully tryptic with a maximum of one missed cleavage, as described earlier. For this experiment, we repeated the Co-IP of the HTRA2-specific protein interaction partners ± treatments (see method Section 2.4) and subjected the respective eluate fractions to further in-solution trypsin digestion, as described elsewhere. In this case, the LTQ Orbitrap XL MS system was coupled online to an EASY-nLC 1200 system (Thermo Fisher Scientific, Rockford, IL, USA) using a PepMap C18 column system (75 µm × 500 mm; Thermo Fisher Scientific, Rockford, IL, USA). The dynamic exclusion mode was applied as follows: repeat count = 3, repeat duration = 30 s, exclusion size list = 100, exclusion time = 180 s, and the exclusion mass width ± 10 ppm. Protein identification and quantification were performed as described in Section 2.7.
# For further validation of the HTRA2-specific interaction partners, we performed a targeted MS analysis via accurate inclusion mass screening (AIMS) technology. […] This time, the LC-MS system “only” recorded the unique peptide sequences of the previously identified HTRA2 interaction partners. […]
# [2] = biological target: T1, recombinant HTRA2 protein (Homo sapiens, UniProt O43464); experiment: HTRA2 protease activity assay with fluorescent H2-optimal substrate; type: biochemical; conditions: for Average degradation rate of the optimal substrate H2 by HTRA2 (enzymatic reaction rate per minute): pH 8.0, RT, untreated positive control 229 U/min
# T1 construct: 6xHis (C); purchased Novoprotein Scientific INC., Summit, NJ, USA
# T1 sequence (O43464 134-458): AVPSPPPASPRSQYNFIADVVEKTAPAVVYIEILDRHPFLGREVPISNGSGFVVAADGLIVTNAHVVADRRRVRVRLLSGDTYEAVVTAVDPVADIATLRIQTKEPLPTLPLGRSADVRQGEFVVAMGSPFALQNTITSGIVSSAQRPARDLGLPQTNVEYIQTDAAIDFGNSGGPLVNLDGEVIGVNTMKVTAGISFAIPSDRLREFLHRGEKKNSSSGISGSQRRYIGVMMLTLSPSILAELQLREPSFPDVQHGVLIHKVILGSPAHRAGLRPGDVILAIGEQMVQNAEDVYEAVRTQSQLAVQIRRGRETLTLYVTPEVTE
# Method: The HTRA2 protease activity assay was performed as described by Martins et al. (2003), but with some slight modifications. The experiment was performed with 100 nM recombinant HTRA2 protein (Novoprotein Scientific INC., Summit, NJ, USA) in a protease assay buffer (50 mM tris(hydroxymethyl)-aminomethane (TRIS), 0.5 mM ethylenediaminetetraacetic acid (EDTA), and 1 mM dithiothreitol (DTT), pH 8.0) containing 10 µM H2-optimal substrate (Innovagen AB, Lund, Sweden). The H2-optimal substrate is commonly used to measure the protease activity of HTRA2 and consists of a structural quencher and a fluorophore unit. The cleavage of the substrate leads to the disruption of the quencher/fluorophore complex and the degradation rate can be measured by fluorescence. The different sample groups were treated with 50 µM PDZ-Opt, 50 µM PDZ-Sub, 50 µM synthetic CDR1 peptide, or 30 µM UCF-101, respectively. The drug compound UCF-101 is an inhibitor of the catalytic domain of HTRA2 and was purchased from Sigma Aldrich (Darmstadt, Germany). The concentrations of the peptide ligands for the HTRA2 protease activity assay were chosen from the previous publication. The concentration of UCF-101 was determined to be optimal from the preliminary experiments. In addition, a positive control containing only 100 nM recombinant HTRA2 and a negative control (only protease assay buffer) were included in this experiment. All of the sample groups were incubated for 1 h at 37 °C to determine the maximum degradation rate of HTRA2. For the analysis of the enzymatic reaction rate of HTRA2, all samples were measured subsequently after the addition of the 10 µM H2-optimal substrate at RT. Fluorescence was monitored on a Spark® 10 M multimode microplate-reader (Tecan Trading AG, Männedorf, Switzerland) with an excitation at 320 nm and a fluorescence emission at 405 nm. The fluorescence background of the substrate was substracted from the fluorescence intensities of the different the sample groups to normalize the data.
# To determine the proteolytic activity of HTRA2 we used the fluorescent H2 optimal substrate developed by Martins et al. (2003). The optimal substrate H2 encoded a short specific amino acid sequence, which is preferentially cleaved by HTRA2, and was also modified with a fluorescent dye and quencher. […] Under physiological conditions, the proteolytic activity of HTRA2 is suppressed by the C-terminal PDZ domain, which blocks the access of potential substrates to the catalytic domain by steric hindrance. The binding of short hydrophobic polypeptides to the allosteric PDZ domain can induce specific conformational changes of HTRA2 and are able to regulate its proteolytic activity. Therefore, Martins et al. (2003) specifically designed the peptide ligands PDZ-Opt (GQYYFV) and PDZ-Sub (GGIRRV), which are known to increase the proteolytic activity of HTRA2 in this assay.
"Decrease of the average degradation rate of the optimal substrate H2 compared with the untreated positive control ([2]; 50 µM peptide, 100 nM HTRA2, 10 µM substrate, RT)","Average degradation rate of the optimal substrate H2 by HTRA2 (enzymatic reaction rate per minute) ([2]; 50 µM peptide, 100 nM recombinant HTRA2, 10 µM H2-optimal substrate, fluorescence ex 320 nm / em 405 nm) [U/min]","Maximum degradation rate of the H2 optimal substrate by HTRA2 ([2]; 50 µM peptide, 1 h at 37 °C, n = 3, Figure 1C)","Inhibition of the proteolytic activity of HTRA2 ([2]; specific protease function assay, p < 0.01 (abstract))",Compound,"Abundances of the co-enriched target proteins FNLA, NCKAP1, POTEE, PSMC1 and SEC13 compared with the HTRA2 group [1]","Average degradation rate of the optimal substrate H2 by HTRA2 (enzymatic reaction rate per minute) ([2]; 30 µM UCF-101, 100 nM recombinant HTRA2, 10 µM H2-optimal substrate) [U/min]"
,,,,"O=C1C(=Cc2ccc(-c3ccccc3[N+](=O)[O-])o2)C(=O)N(c2ccccc2)C(=S)N1c1ccccc1 [UCF-101, reference compound]",slight decrease,0
around 45%,127,significantly decreased,up to 50%,"ASGYTFTNYGLSWVR [CDR, synthetic peptide encoding a complementary-determining region 1 (CDR1) of polyclonal antibody molecules]",significantly diminished,
